The values below come from ChEMBL document CHEMBL4507327 (2021).

Each structure is given as a SMILES string.

The target of assay [1] is T1, Muscarinic acetylcholine receptor M2 (Homo sapiens) (UniProt P08172).
T1 sequence (whole entry): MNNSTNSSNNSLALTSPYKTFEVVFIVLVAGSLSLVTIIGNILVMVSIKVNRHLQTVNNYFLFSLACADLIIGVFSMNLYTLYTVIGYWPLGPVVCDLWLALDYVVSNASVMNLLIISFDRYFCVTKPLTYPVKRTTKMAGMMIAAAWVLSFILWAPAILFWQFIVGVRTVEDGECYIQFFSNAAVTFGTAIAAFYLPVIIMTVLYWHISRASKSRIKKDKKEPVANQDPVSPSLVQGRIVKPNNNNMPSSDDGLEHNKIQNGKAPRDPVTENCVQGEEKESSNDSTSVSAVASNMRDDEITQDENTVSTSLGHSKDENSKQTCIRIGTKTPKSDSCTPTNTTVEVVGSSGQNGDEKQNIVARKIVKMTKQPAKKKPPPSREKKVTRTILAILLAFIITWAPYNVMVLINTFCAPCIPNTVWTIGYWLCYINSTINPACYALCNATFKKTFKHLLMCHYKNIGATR
Particulars: Compound concentration 10.0 uM.

Assay [2] deals with Muscarinic acetylcholine receptor M3 (Homo sapiens) (UniProt P20309). Particulars: Compound concentration 10.0 uM.
The target of assay [3] is 5-hydroxytryptamine receptor 2B (Homo sapiens) (UniProt P41595). The note with it: Compound concentration 10.0 uM.
Assay [4] deals with Alpha-1D adrenergic receptor (Homo sapiens) (UniProt P25100). Briefly: Inhibition of Adrenergic alpha1D at 10 µM in the Eurofins-Panlabs radioligand binding assay (Eurofins_assay_203400). Particulars: Compound concentration 10.0 uM.
Assay [5] addresses GABA-A receptor; anion channel (Rattus norvegicus) (UniProt O09028+P15431+P18506+P18508+P19969+P20236+P23574+P23576+P28471+P28473+P30191+P62813+P63079+P63138+Q91ZM7+Q9ES14). Particulars: Compound concentration 10.0 uM.
Assay [6] deals with T2, Alpha-1A adrenergic receptor (Homo sapiens) (UniProt P35348).
T2 sequence (whole entry): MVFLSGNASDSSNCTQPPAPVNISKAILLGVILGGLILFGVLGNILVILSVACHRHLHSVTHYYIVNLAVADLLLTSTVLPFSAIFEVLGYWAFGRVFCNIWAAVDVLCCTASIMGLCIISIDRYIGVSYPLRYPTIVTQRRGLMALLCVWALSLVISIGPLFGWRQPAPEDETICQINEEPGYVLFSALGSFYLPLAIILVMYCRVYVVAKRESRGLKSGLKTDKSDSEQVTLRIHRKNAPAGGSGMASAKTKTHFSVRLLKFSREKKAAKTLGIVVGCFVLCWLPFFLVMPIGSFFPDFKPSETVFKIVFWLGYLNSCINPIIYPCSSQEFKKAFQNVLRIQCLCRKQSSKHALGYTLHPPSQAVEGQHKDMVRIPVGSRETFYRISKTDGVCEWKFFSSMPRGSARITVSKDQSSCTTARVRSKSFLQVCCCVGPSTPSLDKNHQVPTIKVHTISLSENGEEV
The note with it: Compound concentration 10.0 uM.

Assay [7] has as its target T3, Muscarinic acetylcholine receptor M1 (Homo sapiens) (UniProt P11229).
T3 sequence (whole entry): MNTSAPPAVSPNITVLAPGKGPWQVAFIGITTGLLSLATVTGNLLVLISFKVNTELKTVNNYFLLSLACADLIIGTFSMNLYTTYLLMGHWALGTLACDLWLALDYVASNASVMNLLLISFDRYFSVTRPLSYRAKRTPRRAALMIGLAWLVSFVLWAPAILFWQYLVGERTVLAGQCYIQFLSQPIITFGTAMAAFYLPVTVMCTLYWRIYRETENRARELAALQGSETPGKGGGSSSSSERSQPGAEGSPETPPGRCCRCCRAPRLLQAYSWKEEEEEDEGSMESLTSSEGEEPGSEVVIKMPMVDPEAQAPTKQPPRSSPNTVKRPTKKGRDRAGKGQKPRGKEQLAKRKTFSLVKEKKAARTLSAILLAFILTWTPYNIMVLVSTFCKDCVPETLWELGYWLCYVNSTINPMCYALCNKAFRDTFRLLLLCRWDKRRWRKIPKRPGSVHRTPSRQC
Particulars: Compound concentration 10.0 uM.

Assay [8] addresses Mitogen-activated protein kinase kinase kinase kinase 4 (Homo sapiens, UniProt O95819). Briefly: HGK [ZC1(M4K4CGP1)] Takeda global kinase panel.
For another assay, the species on record is Rattus norvegicus. Briefly: Inhibition of Imidazoline I2, Central at 10 µM in the Eurofins-Panlabs radioligand binding assay (Eurofins_assay_241000). Also on record: ligand concentration 2 nM. Particulars: Compound concentration 10.0 uM.
Assay [9] addresses Delta-type opioid receptor (Homo sapiens) (UniProt P41143). Particulars: Compound concentration 10.0 uM.
Assay [10] has as its target Ribosomal protein S6 kinase alpha-3 (Homo sapiens, UniProt P51812). The experiment in a line: RSK2(R6A3CGE1) Takeda global kinase panel.
In assay [11] the target is Serine/threonine-protein kinase 16 (Homo sapiens, UniProt O75716). The experiment in a line: MPSK1(ST16LGF1) Takeda global kinase panel.
The target of assay [12] is Fibroblast growth factor receptor 1 (Homo sapiens, UniProt P11362). Briefly: FGFR1(FGF1LGF1) Takeda global kinase panel.
In assay [13] the target is Protein kinase C gamma type (Homo sapiens, UniProt P05129). The experiment in a line: PKCgamma(PRKGLGP1) Takeda global kinase panel.
In assay [14] the target is Serine/threonine-protein kinase 38 (Homo sapiens, UniProt Q15208). Briefly: NDR1(ST38LGF1) Takeda global kinase panel.
Another assay addresses Focal adhesion kinase 1 (Homo sapiens, UniProt Q05397). The experiment in a line: FAK(PTK2LGF1) Takeda global kinase panel.
Assay [15] concerns the target Inhibitor of nuclear factor kappa-B kinase subunit epsilon (Homo sapiens, UniProt Q14164). Briefly: IKKepsilon(IKBELGY1) Takeda global kinase panel.
For assay [16], the target named is Tyrosine-protein kinase ZAP-70 (Homo sapiens, UniProt P43403). Briefly: ZAP70(ZAP7LGP1) Takeda global kinase panel.
The target of assay [17] is Calcium/calmodulin-dependent protein kinase type 1 (Homo sapiens, UniProt Q14012). Briefly: CaMK1alpha(CAM1LGT5) Takeda global kinase panel.
The target of assay [18] is Receptor-interacting serine/threonine-protein kinase 4 (Homo sapiens, UniProt P57078). The experiment in a line: ANKRD3(RIP4LGN1) Takeda global kinase panel.
Assay [19] addresses Tyrosine-protein kinase Yes (Homo sapiens, UniProt P07947). Briefly: Yes(YES1LGF1) Takeda global kinase panel.
A further assay addresses Misshapen-like kinase 1 (Homo sapiens, UniProt Q8N4C8). The experiment in a line: MINK [ZC3(MIN1LGF1)] Takeda global kinase panel.
The target in assay [20] is Homeodomain-interacting protein kinase 3 (Homo sapiens, UniProt Q9H422). The experiment in a line: HIPK3(HIP3LGF1) Takeda global kinase panel.
In assay [21] the target is cAMP-dependent protein kinase catalytic subunit gamma (Homo sapiens, UniProt P22612). The experiment in a line: PKAgamma(PRCGLGY1) Takeda global kinase panel.
Assay [22] has as its target Dual specificity testis-specific protein kinase 1 (Homo sapiens, UniProt Q15569). The experiment in a line: TESK1(TES1LGRA) Takeda global kinase panel.

Sequence of Calcium/calmodulin-dependent protein kinase type 1 (Q14012 whole entry): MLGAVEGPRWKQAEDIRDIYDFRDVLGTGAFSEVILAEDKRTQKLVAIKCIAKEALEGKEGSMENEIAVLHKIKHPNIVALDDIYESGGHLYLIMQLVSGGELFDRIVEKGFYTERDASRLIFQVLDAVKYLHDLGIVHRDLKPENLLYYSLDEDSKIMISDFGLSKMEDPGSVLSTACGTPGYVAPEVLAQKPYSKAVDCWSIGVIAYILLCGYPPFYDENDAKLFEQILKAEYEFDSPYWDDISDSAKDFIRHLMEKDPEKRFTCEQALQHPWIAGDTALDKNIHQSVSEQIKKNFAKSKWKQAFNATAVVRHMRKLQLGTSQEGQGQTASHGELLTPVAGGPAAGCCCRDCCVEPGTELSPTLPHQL
Sequence of Tyrosine-protein kinase ZAP-70 (P43403 whole entry): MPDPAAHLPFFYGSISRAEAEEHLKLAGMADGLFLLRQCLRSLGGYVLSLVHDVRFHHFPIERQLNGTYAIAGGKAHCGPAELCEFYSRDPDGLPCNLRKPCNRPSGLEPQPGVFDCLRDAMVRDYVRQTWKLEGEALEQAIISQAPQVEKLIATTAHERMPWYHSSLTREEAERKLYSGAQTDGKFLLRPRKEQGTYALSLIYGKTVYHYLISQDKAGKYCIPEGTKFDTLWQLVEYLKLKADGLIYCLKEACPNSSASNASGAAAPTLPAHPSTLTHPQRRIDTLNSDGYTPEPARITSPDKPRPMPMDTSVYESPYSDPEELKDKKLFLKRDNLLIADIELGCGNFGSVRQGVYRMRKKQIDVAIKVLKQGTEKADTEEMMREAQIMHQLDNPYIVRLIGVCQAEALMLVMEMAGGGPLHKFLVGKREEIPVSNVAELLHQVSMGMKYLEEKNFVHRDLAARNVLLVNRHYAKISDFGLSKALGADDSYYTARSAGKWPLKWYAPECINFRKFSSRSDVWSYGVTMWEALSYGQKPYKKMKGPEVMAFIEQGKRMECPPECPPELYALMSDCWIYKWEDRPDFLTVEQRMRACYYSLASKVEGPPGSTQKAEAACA
Sequence of Dual specificity testis-specific protein kinase 1 (Q15569 whole entry): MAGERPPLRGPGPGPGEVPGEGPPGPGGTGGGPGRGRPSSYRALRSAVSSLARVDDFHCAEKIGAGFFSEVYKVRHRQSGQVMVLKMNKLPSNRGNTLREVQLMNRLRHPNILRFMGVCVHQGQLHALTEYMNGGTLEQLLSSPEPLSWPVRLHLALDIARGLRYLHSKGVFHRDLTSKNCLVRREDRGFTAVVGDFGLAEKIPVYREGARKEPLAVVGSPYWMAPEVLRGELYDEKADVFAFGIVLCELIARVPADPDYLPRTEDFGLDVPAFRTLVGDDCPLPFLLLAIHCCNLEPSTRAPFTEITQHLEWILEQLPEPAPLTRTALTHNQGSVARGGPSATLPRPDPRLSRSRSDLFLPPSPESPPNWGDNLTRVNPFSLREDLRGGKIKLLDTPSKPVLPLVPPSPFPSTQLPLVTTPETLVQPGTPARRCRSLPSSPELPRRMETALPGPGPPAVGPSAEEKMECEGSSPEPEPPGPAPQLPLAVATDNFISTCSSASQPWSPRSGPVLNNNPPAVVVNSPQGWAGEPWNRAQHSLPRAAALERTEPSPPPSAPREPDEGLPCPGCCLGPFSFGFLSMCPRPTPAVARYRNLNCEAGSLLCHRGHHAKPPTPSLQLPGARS
Sequence of Muscarinic acetylcholine receptor M3 (Homo sapiens) (P20309 whole entry, looked up): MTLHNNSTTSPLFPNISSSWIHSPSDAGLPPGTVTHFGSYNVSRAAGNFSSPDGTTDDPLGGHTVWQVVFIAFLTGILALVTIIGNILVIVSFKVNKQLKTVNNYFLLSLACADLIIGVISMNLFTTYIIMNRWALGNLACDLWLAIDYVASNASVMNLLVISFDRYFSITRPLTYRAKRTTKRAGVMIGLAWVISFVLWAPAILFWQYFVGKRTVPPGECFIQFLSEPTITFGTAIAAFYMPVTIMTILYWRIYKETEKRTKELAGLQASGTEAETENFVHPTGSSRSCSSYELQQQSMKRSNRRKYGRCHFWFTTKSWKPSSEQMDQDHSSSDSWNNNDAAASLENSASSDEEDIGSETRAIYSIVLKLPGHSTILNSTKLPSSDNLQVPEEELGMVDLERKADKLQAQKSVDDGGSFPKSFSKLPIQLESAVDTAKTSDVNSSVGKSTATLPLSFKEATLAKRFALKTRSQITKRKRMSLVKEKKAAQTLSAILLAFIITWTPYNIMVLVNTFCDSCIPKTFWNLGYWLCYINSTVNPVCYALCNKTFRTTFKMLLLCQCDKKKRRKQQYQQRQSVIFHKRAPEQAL
Sequence of Fibroblast growth factor receptor 1 (P11362 whole entry): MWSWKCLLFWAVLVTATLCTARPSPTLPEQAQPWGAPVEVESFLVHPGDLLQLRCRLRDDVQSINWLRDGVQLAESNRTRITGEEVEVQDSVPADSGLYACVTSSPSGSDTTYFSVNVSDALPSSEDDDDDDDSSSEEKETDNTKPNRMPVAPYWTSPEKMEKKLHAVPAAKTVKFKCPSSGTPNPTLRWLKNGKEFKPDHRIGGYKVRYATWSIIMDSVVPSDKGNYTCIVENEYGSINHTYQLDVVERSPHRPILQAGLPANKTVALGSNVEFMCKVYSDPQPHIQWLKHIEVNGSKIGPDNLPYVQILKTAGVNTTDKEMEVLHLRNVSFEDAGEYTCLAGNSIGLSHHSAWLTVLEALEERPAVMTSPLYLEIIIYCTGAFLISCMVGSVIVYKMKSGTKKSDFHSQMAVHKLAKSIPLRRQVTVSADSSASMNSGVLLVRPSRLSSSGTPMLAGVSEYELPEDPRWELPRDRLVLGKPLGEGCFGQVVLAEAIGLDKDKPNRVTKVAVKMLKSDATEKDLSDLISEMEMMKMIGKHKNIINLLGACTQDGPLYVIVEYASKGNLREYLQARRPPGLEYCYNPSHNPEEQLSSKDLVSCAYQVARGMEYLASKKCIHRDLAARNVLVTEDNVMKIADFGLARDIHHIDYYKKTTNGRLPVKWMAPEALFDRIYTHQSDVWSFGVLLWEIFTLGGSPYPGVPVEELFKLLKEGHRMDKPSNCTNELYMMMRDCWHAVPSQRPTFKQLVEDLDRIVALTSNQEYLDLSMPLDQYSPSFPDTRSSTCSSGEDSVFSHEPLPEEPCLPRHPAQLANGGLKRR
Sequence of Serine/threonine-protein kinase 38 (Q15208 whole entry): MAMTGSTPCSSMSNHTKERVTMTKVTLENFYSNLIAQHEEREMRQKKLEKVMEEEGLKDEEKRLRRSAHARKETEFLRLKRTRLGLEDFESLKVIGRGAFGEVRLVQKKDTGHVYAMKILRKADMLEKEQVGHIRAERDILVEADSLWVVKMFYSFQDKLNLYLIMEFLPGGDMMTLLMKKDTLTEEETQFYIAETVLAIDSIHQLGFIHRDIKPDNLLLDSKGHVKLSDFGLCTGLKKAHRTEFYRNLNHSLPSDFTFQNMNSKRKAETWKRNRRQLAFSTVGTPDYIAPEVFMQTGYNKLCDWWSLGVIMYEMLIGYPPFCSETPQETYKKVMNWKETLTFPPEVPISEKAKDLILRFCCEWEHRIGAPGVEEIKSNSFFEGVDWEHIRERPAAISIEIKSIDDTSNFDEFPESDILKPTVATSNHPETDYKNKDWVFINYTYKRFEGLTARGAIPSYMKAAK
Sequence of Inhibitor of nuclear factor kappa-B kinase subunit epsilon (Q14164 whole entry): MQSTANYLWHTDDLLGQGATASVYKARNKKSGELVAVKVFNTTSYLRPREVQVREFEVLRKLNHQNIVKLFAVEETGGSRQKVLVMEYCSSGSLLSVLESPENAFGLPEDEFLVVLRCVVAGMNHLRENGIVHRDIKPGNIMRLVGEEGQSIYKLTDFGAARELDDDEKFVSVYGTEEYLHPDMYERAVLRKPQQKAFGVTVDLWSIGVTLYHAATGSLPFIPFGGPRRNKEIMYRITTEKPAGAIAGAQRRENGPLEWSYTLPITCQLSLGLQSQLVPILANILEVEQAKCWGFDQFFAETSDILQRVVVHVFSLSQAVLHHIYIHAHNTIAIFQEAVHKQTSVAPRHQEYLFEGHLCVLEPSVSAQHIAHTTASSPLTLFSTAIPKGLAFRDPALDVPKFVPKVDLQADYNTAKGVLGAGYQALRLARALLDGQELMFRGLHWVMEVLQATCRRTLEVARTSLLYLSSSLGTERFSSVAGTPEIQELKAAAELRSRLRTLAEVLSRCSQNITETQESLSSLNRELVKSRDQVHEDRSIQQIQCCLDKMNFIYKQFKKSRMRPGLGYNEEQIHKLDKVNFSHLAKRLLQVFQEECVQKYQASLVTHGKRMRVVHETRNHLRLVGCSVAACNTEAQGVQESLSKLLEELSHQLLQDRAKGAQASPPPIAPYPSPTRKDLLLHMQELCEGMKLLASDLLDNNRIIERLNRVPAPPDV

For `CN1C(=O)[C@@H](N2CCc3cn(Cc4ccccc4)nc3C2=O)COc2ccccc21` [TP-030-1], the inhibition was -4.37% in assay [1]; 0.09% in [2]; 12% in assay [3]; -2% in assay [4]; -3.98% in assay [5]; -0.5% in [6]. Further, the inhibition in assay [7] was 0.6%; in the assay listed under Rattus norvegicus it was 6%; in assay [9] it was 28.8%. Also, the IC50 in assay [8] was 1000 nM.
For `CN1C(=O)[C@@H](N2CCc3cn(CC4CCS(=O)(=O)CC4)nc3C2=O)COc2ccccc21` [TP-030n], the IC50 (in [10]; in assay [11]; in assay [12]; in assay [13]; in assay [14]; at Focal adhesion kinase 1) was 1000 nM throughout. Also, the IC50 (in assay [15]; in assay [16]; in assay [17]; in assay [18]; in assay [19]; against Misshapen-like kinase 1) was 1000 nM throughout. Besides, the IC50 in [20], in assay [21] and in assay [22] was 1000 nM throughout.
